Results taken from patent EP1501797B1, “3-(SUBSTITUTED AMINO)-1H-INDOLE-2-CARBOXYLIC ACID ESTER AND 3-(SUBSTITUTED AMINO)-BENZO[B]THIOPHENE-2-CARBOXYLIC ACID ESTER DERIVATIVES AS INTERLEUKIN-4 GENE EXPRESSION INHIBITORS” (Aventis Pharmaceuticals Inc., priority 2002, dated 2003).

Tested on: IL-4
Test: In vivo ovalbumin (OVA) mouse model, BALF IL-4
Set-up: species or system mice
Settings: for IL-4 pg/ml (± SEM): 30 minutes before OVA challenge, BALF 24 hours, vehicle 1220.4 ± 207.7
Protocol: This model is designed to determine the ability of a test article to modulate an antigen-induced pulmonary inflammatory cell accumulation in sensitized Balb/c mice from Charles River Laboratories. The mice are given a two week time period from arrival date prior to sensitizations.
On days 0, 7, 14, each animal is injected intraperitoneal (i.p.) with a 0.2 ml Ovalbumin Hydragel solution. Each animal receives 10 µg of Ovalbumin in 0.2 mL of Hydragel, aluminum hydroxide adsorptive gel containing 2% aluminum oxide. […] On day 22, BALF samples are collected from one group of animals and used for cytokine analysis. On day 24, BALF is obtained from a second group of animals and used for differential cell counts.
Test System: Female Babl/cJ mice (Jackson Laboratories), approximately 6-9 weeks old, each weighing approximately 20 to 25 grams, are divided into ten animals per group.
Sensitization Regimen: Mice are sensitized by an intraperitoneal injection of 10 µg ovalbumin (OVA) mixed in 4 mg aluminum hydroxide Al(OH)3 gel suspension in 0.2 ml sterile saline on Days 0, 7 and 14. This suspension is prepared one hour before intraperitoneal injection into each mouse. The animals are ready for OVA challenge on Day 21.
Antigen Challenge: Animals are exposed to aerosolized OVA on day 21 (5% w/v in sterile saline) for 20 minutes. The aerosol is generated by a PARI-Master nebulizer, the outlet of which is connected to a small Plexiglas® chamber containing the animals. Bronchoalveolar lavage is performed on Day 22.
Method of Study Performance: On day 24, 72 hours following aerosol OVA exposure, a separate group of animals are anesthetized with urethane (0.15 - 0.2 gm/kg) and the trachea is exposed and cannulated. Lungs are lavaged with 2 x 0.5 ml Hank's balanced salt solution without Ca^2+ and Mg^2+ (HBSS; Gibco, Grand Island, NY) containing 0.1% EDTA. Lavage fluid is recovered after 30 sec by gentle aspiration and pooled for each animal. Samples are centrifuged at 2000 rpm for 15 minutes at 5°C. After centrifugation, individual supernatants are stored frozen at -80°C. The resulting pellet is resuspended in 0.5 ml of HBSS containing 0.1% EDTA. Total cells and eosinophils are determined using a Technicon Hl and cytoslides, respectively.
Administration of the Test/Control Article: The test article and vehicle dosing preparations are administered once to each anesthetized mouse intranasally using a 200 µl pipette at 30-60 minutes prior to OVA challenge. Each animal receives 50 µl (25 µl/nostril) at each time point. Method of Euthanasia: Urethane overdose at in-life completion.
Compounds administered 30 minutes before aerosol ovalbumin challenge in ova sensitized mice. BALF harvested 24 hours after aerosol challenge. N = 6/group.
Mice (12 animals per group) are sensitized with 0.2 ml of an AlOH3 hydrogel suspension (2% AlOH3) containing 50 µg/ml ovalbumin on days 0, 7 and 14. […] The glucocorticosteroid budesonide (10 mg/kg) is included as a control. All compounds are given in 0.5% methylcellulose/0.2% Tween 80, intranasally (50µl). After the OVA challenge for 24 hours, the mice underwent bronchoalveolar lavage and IL-4 and IL-13 levels in the BALF are determined by ELISA. Another group of mice underwent bronchoalveolar lavage (72 hours after treatment) to determine the number of the eosinophils (*p<0.05, **p<0.01).
Compounds are given (30 mg/kg), intranasally, once, 30 min before OVA challenge unless noted otherwise. BAL fluids are collected 24 hours after OVA challenge and the cytokine levels are measured by standard ELISAs.

## O=C(O)c1[nH]c2ccccc2c1Nc1ccncc1 [Example 28, 3-(4-Pyridinylamino)-1H-indole-2-carboxylic acid]
3 mg/kg intranasal
  IL-4 pg/ml (± SEM): 835.1 ± 40.4 pg/mL
10 mg/kg intranasal
  IL-4 pg/ml (± SEM): 414.3 ± 115.5 pg/mL
30 mg/kg intranasal
  IL-4 pg/ml (± SEM): 123.9 ± 48.7 pg/mL
Mus musculus, mice, intranasally, FIG. 1, read-out: ED50, allergen-induced IL-4 levels in the BALF
  ED50: ~10 mg/kg
